Like-named read-outs stand apart in the source and are kept apart here.
What was measured:
[1] = system: barnyardgrass (Echinochloa crus-galli); assay: Test A preemergence; type: in vivo; conditions: Echinochloa crus-galli, pre-emergence, 240 h; for pest or weed control at 125 g/ha: 125 g ai/ha; for pest or weed control at 125 g/ha / pest or weed control at 500 g/ha: preemergence; for pest or weed control at 500 g/ha: 500 g ai/ha; for pest or weed control at 31 g/ha: Preemergence, 31 g ai/ha
How it was run: (§1)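 Seeds sprayed preemergence with a directed soil spray, or plants at 2 to 10 cm height and one- to two-leaf stage sprayed postemergence, with test chemicals in a non-phytotoxic solvent mixture containing surfactant, in loam soil–sand blend. Injury rated visually against untreated controls after about 10 d in greenhouse, 0 (no effect) to 100 (complete control).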

[2] = system: giant foxtail (Setaria faberii); assay: Test A preemergence; type: in vivo; conditions: Setaria faberi, pre-emergence, 240 h; for pest or weed control at 125 g/ha: 125 g ai/ha; for pest or weed control at 125 g/ha / pest or weed control at 500 g/ha: preemergence; for pest or weed control at 500 g/ha: 500 g ai/ha; for pest or weed control at 31 g/ha: Preemergence, 31 g ai/ha
How it was run: as §1

[3] = system: ragweed (common ragweed, Ambrosia elatior); assay: Test A preemergence; type: in vivo; conditions: Ambrosia artemisiifolia, pre-emergence, 240 h; for pest or weed control at 125 g/ha: 125 g ai/ha; for pest or weed control at 125 g/ha / pest or weed control at 500 g/ha: preemergence; for pest or weed control at 500 g/ha: 500 g ai/ha; for pest or weed control at 31 g/ha: Preemergence, 31 g ai/ha
How it was run: as §1

[4] = system: Kochia (Kochia scoparia); assay: Test A preemergence; type: in vivo; conditions: Bassia scoparia, pre-emergence, 240 h; for pest or weed control at 125 g/ha: 125 g ai/ha; for pest or weed control at 125 g/ha / pest or weed control at 500 g/ha: preemergence; for pest or weed control at 500 g/ha: 500 g ai/ha; for pest or weed control at 31 g/ha: Preemergence, 31 g ai/ha
How it was run: as §1

[5] = system: pigweed (Amaranthus retroflexus); assay: Test A preemergence; type: in vivo; conditions: Amaranthus retroflexus, pre-emergence, 240 h; for pest or weed control at 125 g/ha: 125 g ai/ha; for pest or weed control at 125 g/ha / pest or weed control at 500 g/ha: preemergence; for pest or weed control at 500 g/ha: 500 g ai/ha; for pest or weed control at 31 g/ha: Preemergence, 31 g ai/ha
[6] = visual rating after approx. 10 d, 0 to 100 scale where 0 is no effect and 100 is complete control, read-out: Plant response rating, Barnyardgrass
[7] = 0 to 100 scale, 0 = no effect, 100 = complete control, read-out: Plant response rating, Barnyardgrass
[8] = visual rating after approx. 10 d, 0 to 100 scale where 0 is no effect and 100 is complete control, read-out: Plant response rating, Foxtail, Giant
[9] = 0 to 100 scale, 0 = no effect, 100 = complete control, read-out: Plant response rating, Foxtail, Giant
[10] = visual rating after approx. 10 d, 0 to 100 scale where 0 is no effect and 100 is complete control, read-out: Plant response rating, Ragweed
[11] = 0 to 100 scale, 0 = no effect, 100 = complete control, read-out: Plant response rating, Ragweed
[12] = visual rating after approx. 10 d, 0 to 100 scale where 0 is no effect and 100 is complete control, read-out: Plant response rating, Kochia
[13] = 0 to 100 scale, 0 = no effect, 100 = complete control, read-out: Plant response rating, Kochia
[14] = visual rating after approx. 10 d, 0 to 100 scale where 0 is no effect and 100 is complete control, read-out: Plant response rating, Pigweed
[15] = 0 to 100 scale, 0 = no effect, 100 = complete control, read-out: Plant response rating, Pigweed
[16] = 0 to 100 scale (0 no effect, 100 complete control), read-out: Plant response rating, Barnyardgrass
[17] = 0 to 100 scale (0 no effect, 100 complete control), read-out: Plant response rating, Foxtail, Giant
[18] = 0 to 100 scale (0 no effect, 100 complete control), read-out: Plant response rating, Ragweed
[19] = 0 to 100 scale (0 no effect, 100 complete control), read-out: Plant response rating, Kochia
[20] = 0 to 100 scale (0 no effect, 100 complete control), read-out: Plant response rating, Pigweed
[21] = 0 to 100 scale where 0 is no effect and 100 is complete control, read-out: Barnyardgrass plant response rating
[22] = visual injury rating about 10 d after treatment, 0 to 100 scale (0 no effect, 100 complete control), read-out: Barnyardgrass plant response rating
[23] = 0 to 100 scale where 0 is no effect and 100 is complete control, read-out: Foxtail, Giant plant response rating
[24] = visual injury rating about 10 d after treatment, 0 to 100 scale (0 no effect, 100 complete control), read-out: Foxtail, Giant plant response rating
[25] = visual injury rating about 10 d after treatment, 0 to 100 scale (0 no effect, 100 complete control), read-out: Ragweed plant response rating
[26] = 0 to 100 scale where 0 is no effect and 100 is complete control, read-out: Kochia plant response rating
[27] = visual injury rating about 10 d after treatment, 0 to 100 scale (0 no effect, 100 complete control), read-out: Kochia plant response rating
[28] = 0 to 100 scale where 0 is no effect and 100 is complete control, read-out: Pigweed plant response rating
[29] = visual injury rating about 10 d after treatment, 0 to 100 scale (0 no effect, 100 complete control), read-out: Pigweed plant response rating

Row | Compound | pest or weed control at 125 g/ha [1, 6] | pest or weed control at 125 g/ha [2, 8] | pest or weed control at 125 g/ha [3, 10] | pest or weed control at 125 g/ha [4, 12] | pest or weed control at 125 g/ha [5, 14] | melting point | pest or weed control at 125 g/ha [1, 21] | pest or weed control at 500 g/ha [1, 22] | pest or weed control at 125 g/ha [2, 23] | pest or weed control at 500 g/ha [2, 24] | pest or weed control at 500 g/ha [3, 25] | pest or weed control at 125 g/ha [4, 26] | pest or weed control at 500 g/ha [4, 27] | pest or weed control at 125 g/ha [5, 28] | pest or weed control at 500 g/ha [5, 29] | other results
1 | O=C1NC[C@H](c2cnc(C(F)(F)F)nc2)[C@H]1C(=O)Nc1ccccc1F [Compound 741] | 0% | 0% | 0% | 0% | 0% | 227 to 231 °C |  |  |  |  |  |  |  |  |  | pest or weed control at 500 g/ha [1, 7]: 0%; pest or weed control at 500 g/ha [2, 9]: 0%; pest or weed control at 500 g/ha [3, 11]: 0%; pest or weed control at 500 g/ha [4, 13]: 30%; pest or weed control at 500 g/ha [5, 15]: 40%
2 | CN1CC(c2cccc(OC/C=C/Cl)c2)C(C(=O)Nc2cccc(F)c2F)C1=O (stereo not shown) [Compound 772] | 0% | 50% | 0% | 0% | 0% | 146 to 150 °C |  |  |  |  |  |  |  |  |  | pest or weed control at 500 g/ha [1, 7]: 40%; pest or weed control at 500 g/ha [2, 9]: 90%; pest or weed control at 500 g/ha [3, 11]: 0%; pest or weed control at 500 g/ha [4, 13]: 30%; pest or weed control at 500 g/ha [5, 15]: 0%
3 | C/C=C/C1CNC(=O)C1C(=O)Nc1ccccc1F (stereo not shown) [Compound 792] | 0% | 0% | 0% | 0% | 0% | 133 to 137 °C |  |  |  |  |  |  |  |  |  | pest or weed control at 31 g/ha [1, 16]: 0%; pest or weed control at 31 g/ha [2, 17]: 0%; pest or weed control at 31 g/ha [3, 18]: 0%; pest or weed control at 31 g/ha [4, 19]: 0%; pest or weed control at 31 g/ha [5, 20]: 0%
4 | O=C1NCC[C@H](c2ccc(Cl)cc2)[C@H]1C(=O)Nc1cccc(F)c1F [Compound 795] | 80% | 70% | 0% | 0% | 0% | 86 to 89 °C |  |  |  |  |  |  |  |  |  | pest or weed control at 31 g/ha [1, 16]: 30%; pest or weed control at 31 g/ha [2, 17]: 0%; pest or weed control at 31 g/ha [3, 18]: 0%; pest or weed control at 31 g/ha [4, 19]: 0%; pest or weed control at 31 g/ha [5, 20]: 0%
5 | CCc1ccccc1NC(=O)[C@H]1C(=O)N(C)C[C@@H]1c1ccc(C(F)(F)F)cc1 [Compound 935] |  |  |  |  |  | 116 to 119 °C | 70% | 90% | 90% | 90% | 30% | 70% | 80% | 20% | 20% | 
6 | CN1C[C@H](c2ccc(C(F)(F)F)cc2)[C@@H](C(=O)Nc2cccc(F)c2Cl)C1=O [Compound 938] |  |  |  |  |  | 169 to 172 °C | 90% | 90% | 90% | 90% | 20% | 70% | 80% | 80% | 90% | 
7 | O=C1NC[C@H](c2cccc(C(F)(F)F)n2)[C@H]1C(=O)Nc1ccccc1F [Compound 940] |  |  |  |  |  | 164 to 167 °C | 30% | 70% | 40% | 90% | 0% | 0% | 0% | 0% | 0% | 
8 | Cc1cc([C@H]2CN(C)C(=O)[C@@H]2C(=O)Nc2cccc(F)c2F)on1 [Compound 1196] |  |  |  |  |  | 144 to 148 °C |  |  |  |  |  |  |  |  |  | pest or weed control at 125 g/ha ([1]; visual injury rating, 0 to 100 scale where 0 is no effect and 100 is complete control, approximately 10 d, read-out: Barnyardgrass plant response rating): 50%; pest or weed control at 500 g/ha [1, 21]: 90%; pest or weed control at 125 g/ha ([2]; visual injury rating, 0 to 100 scale where 0 is no effect and 100 is complete control, approximately 10 d, read-out: Foxtail, Giant plant response rating): 70%; pest or weed control at 500 g/ha [2, 23]: 90%; pest or weed control at 125 g/ha ([3]; visual injury rating, 0 to 100 scale where 0 is no effect and 100 is complete control, approximately 10 d, read-out: Ragweed plant response rating): 0%; pest or weed control at 500 g/ha ([3]; 0 to 100 scale where 0 is no effect and 100 is complete control, read-out: Ragweed plant response rating): 0%; pest or weed control at 125 g/ha ([4]; visual injury rating, 0 to 100 scale where 0 is no effect and 100 is complete control, approximately 10 d, read-out: Kochia plant response rating): 0%; pest or weed control at 500 g/ha [4, 26]: 0%; pest or weed control at 125 g/ha ([5]; visual injury rating, 0 to 100 scale where 0 is no effect and 100 is complete control, approximately 10 d, read-out: Pigweed plant response rating): 0%; pest or weed control at 500 g/ha [5, 28]: 0%

Source: patent US12077503B2, “Substituted cyclic amides and their use as herbicides” (FMC CORPORATION, priority 2015, dated 2024)
